Measurements taken from patent US8008354B2, “Death receptor sensitizing compounds and methods of use therefor” (Burnham Institute for Medical Research, priority 2006, dated 2011).
Entries after “also recorded” stand apart in the source; their conditions may differ. Structures can show the parent of a compound that is named as a salt.

What was measured:
Type in all cases: cell-based, human
FAS or TRAIL receptors = assay: Surface expression of FAS or TRAIL receptors by flow cytometry; conditions: PPC-1 cells, flow cytometry (data not shown)
Source text: Furthermore, since these compounds sensitize to both FAS and TRAIL, they presumably act distal to death receptors.

FLIP = FLIP protein levels by SDS-PAGE/immunoblotting
Procedure: FIG. 7. Effect of FAS-sensitizing compounds on levels of FLIP protein and DISC activation. (A) PPC-1 cells (2×10^5) were seeded into 35 mm plates and treated the next day with various FAS-sensitizing compounds (30 μM), with (+) or without (−) CH-11 antibody (100 ng/mL). As a positive control, cells were treated with CDDO (5 μM). Cell lysates were prepared 24 hours later, normalized for total protein content, and analyzed by SDS-PAGE/immunoblotting using antibodies specific for FLIP or a-tubulin. (B) PPC-1, OVCAR-3, T47D, MDA-MB-468 and DU 145 cells (2×10^5) were seeded into 35 mm plates and treated the next day with 5809354 (40 μM). Cell lysates were prepared 24 hours after treatment, normalized for total protein and analyzed by SDS-PAGE/immunoblotting using antibodies specific for FLIP or β-actin. (C) PPC-1, OVCAR-3, T47D, and DU 145 cells (2×10^5) were seeded into 35 mm plates and treated the next day with 5809354 (40 μM) (black bars) or buffer control (white bars). mRNA was extracted 24 hours after treatment. Levels of the long isoform of FLIP and GAPDH were detected by quantitative RT-PCR. Levels of FLIP were normalized for GAPDH expression and expressed as a mean fold change+SD over buffer treated cells. (D) PPC-1 cells (2×10^5) were seeded into 35 mm plates and treated the next day with various FAS-sensitizing compounds (30 μM) with (+) or without (−) CH-11 (100 ng/mL). Cell lysates were prepared 24 hours after treatment, normalized for total protein, and analyzed by SDS-PAGE/immunoblotting using antibodies specific for caspase-8 and β-actin.
FIG. 13. Small molecule down-regulation of FLIP sensitizes prostate cancer cells to anoikis. (A) PPC-1 cells were seeded overnight in adherent conditions and then treated with increasing concentrations of 5809354 for 16 hours. After incubation, cells were harvested. Total cellular RNA was extracted and mRNA levels of the long isoform of FLIP (FLIPL), the short isoform of FLIP (FLIPS), or rRNA levels of 18S were detected by real-time RT-PCR. Data were normalized using the ΔΔCT method and expressed as the mean±SEM percent of […] expression relative to untreated controls. (B) PPC-1 cells were cultured and treated as in panel A. Total cellular protein was isolated and analyzed by SDS-PAGE immunoblotting using anti-FLIP and anti-Actin antibodies. (C) PPC-1 cells were seeded overnight in adherent conditions and then exposed to increasing concentrations of 5809354 in the presence or absence of Fas-activating antibody (CH-11, 100 ng/mL). Thirty hours after incubation, cell viability was determined using the MTS assay. Data represents the mean±SEM of percent of viable cells. (D) PPC-1 cells were seeded overnight in adherent or suspension conditions and then treated with increasing concentrations of 5809354 for 30 hours. After incubation, apoptosis was measured by flow cytometry to detect cell surface annexin V expression and PI. Data represents the mean±SEM of percent of viable cells. (E) Cells were harvested, fixed, stained with DAPI, and nuclear morphology analyzed by fluorescence microscopy. Arrowheads refer to fragmented nuclei indicative of apoptosis. […] Thirty hours after incubation, cells were harvested and equal volumes plated in a colony formation assay. One week later, cells were stained with methylene blue and the number of colonies counted. Data represents the mean ±SEM percent of colonies relative to untreated controls.
Immunoblot analysis. Protein extracts were obtained by washing cells with phosphate-buffered saline (PBS) [pH 7.4] and suspending the cells in lysis buffer [10 mM Tris (pH 7.4), 150 mM NaCl, 0.1% Triton X-100, 0.5% sodium deoxycholate, and 5 mM EDTA] containing protease inhibitors (Complete tablets; Roche, Indianapolis, Ind.). Immunoblot assays were performed as described in Carter et al. (2005). […]

PPC-1 cells = assay: Annexin V apoptosis of PPC-1 cells with CH-11 and sensitizer, with or without zVAD-fmk; conditions: zVAD-fmk 100 μM, annexin V staining
Procedure: FIG. 6. Characterization of the mechanism of FAS-sensitizing compounds. (A) PPC-1 cells (1×10^5) were seeded in 24 well plates. The next day, cells were treated with CH-11 antibody (100 ng/mL) and 30 μM 6094911, 5809354, or 5569100 with (square) or without (diamond) caspase inhibitor z-VAD-fmk (100 μM). Apoptosis was measured 24 hours later by Annexin V staining, expressing data as percentage of Annexin V-negative (“viable”) cells (mean+SD) (n=3). (B) PPC-1 cells (2×10^5) were seeded in 6 well plates and co-transfected with plasmids encoding Bcl-XL, Crm A, or empty vector along with a green fluorescent protein (GFP) encoding plasmid to identify successfully transfected cells. After 48 hours, cells were treated with CH-11 antibody (100 ng/mL) and 6094911 (30 μM), 5809354 (30 μM), or 5569100 (15 μM). As a positive control, transfected cells were treated with staurosporine (0.5 μM) (STS). Apoptotic cells were identified by morphological assessment of the GFP-positive cells, and data were expressed as the percentage of nonapoptotic (“viable”) cells (mean+SD) (n=3).
Cell death assays. Cell viability was measured by MTT and MTS assays, essentially as described in Schimmer et al. (2004). Absorbance readings were plotted against a standard curve to derive the corresponding cell number, and cell viability was expressed as a percentage relative to untreated cells. Apoptosis was measured by flow cytometric analysis of Annexin V surface expression after staining cells with FITC-anti-Annexin V and propidium iodide (PI) (Biovision, Mountain View, Calif.), as described in Pederson et al. (2002).
To further assess the mechanism of the 8 compounds that selectively modulated tumor sensitivity to extrinsic pathway stimuli, the effects of benzoyl-Val-Ala-Asp-fluoromethylketone (zVAD-fmk), a broad-spectrum irreversible inhibitor of caspase-family proteases (Enzyme Systems, Dublin, Calif.) was tested. Accordingly, PPC-1 cells were treated with CH-11 and sensitizers such as 6094911, 5809354, and 5569100 with and without zVAD-fmk (100 μM) for […]. Apoptosis was then measured by annexin V staining.

[1] = PPC-1 cells, 30 μM, with or without CH-11, 24 hours, long isoform

Molecule | surface expression of FAS or TRAIL receptors (FAS or TRAIL receptors) | levels of FLIP protein (FLIP; PPC-1 cells, 30 μM, with or without CH-11, 24 hours, long isoform, hydrobromide) | effect of zVAD-fmk on sensitization to CH-11 (PPC-1 cells) | levels of FLIP protein (FLIP; [1]) | FLIP protein expression (FLIP; Example 2, PPC-1 cells, increasing concentrations, 16 hours) | levels of FLIP protein (FLIP; non-responding cell lines DU145 and MDA-MB-468, 40 μM, 24 hours)
CCn1c(=N)n(CC(=O)c2cc(C(C)(C)C)c(O)c(C(C)(C)C)c2)c2ccccc21 [compound 5569100, 1-(3,5-di-tert-butyl-4-hydroxyphenyl)-2-(3-ethyl-2-imino-2,3-dihydro-1H-benzo[d]imidazol-1-yl)ethanone hydrobromide] | did not change | decreased levels of FLIP protein; also recorded: reduced FLIP expression | zVAD-fmk blocked sensitization to CH-11 | – | – | –
CC(=O)CC(=O)Nc1ccc(Cl)c(C(F)(F)F)c1 [compound 6094911, N-[4-chloro-3-(trifluoromethyl)phenyl]-3-oxobutanamide] | did not change | – | zVAD-fmk blocked sensitization to CH-11 | did not alter levels of FLIP protein | – | –
4-(4-chloro-2-methylphenoxy)-N-hydroxybutanamide [compound 5809354] | did not change | – | zVAD-fmk blocked sensitization to CH-11 | decreased levels of FLIP protein | concentration-dependent decrease | levels of FLIP were decreased
